Patent publication US9926319B2, “Pyridyl piperidines” (MERCK PATENT GMBH, priority 2014, dated 2018)
pIC50: −log10 of the molar value.

What was measured:
[1] = CLint (intrinsic clearance) assay, microsomal incubation; type: in vitro ADME, Human; conditions: NADPH, 37° C., up to 30 min; for Human Clint: human liver microsomes 0.5 mg/mL protein; for microsomal CLint at 0.8 μM: human, liver microsomes, pH 7.4, human liver microsomes 0.5 mg/mL protein
Protocol: 2. CLint (Intrinsic Clearance) Assay
A Tecan Genesis workstation (RWS ASY 150/8) was used to perform the microsomal incubations. Analysis was carried out using a Waters ACQUITY UPLC system coupled to an ABSciex API3000 mass spectrometer. Data analysis was performed using Assay Explorer (Symyx).
0.1 M potassium phosphate buffer pH 7.4 containing 1 mM MgCl2
15 mM NADPH in phosphate buffer
5.0 mg protein/mL liver microsomes in phosphate buffer
Each experiment consists of 12 test and 2 reference compounds. The reference compounds are incubated as a cocktail.
Dilution of test compounds was done in 2 steps from a 10 mM DMSO stock solution. First 4 μL stock solution was added to 196 μL of 20% DMSO in potassium phosphate buffer pH 7.4. In a second step 10 μL of the first dilution were added to […] potassium phosphate buffer and 100 μL internal standard solution to a final concentration of 0.8 μM. 100 μL of the final compound dilution were aliquoted into a 96 deep well plate. 12.5 μL liver microsomes were added to each well (0.5 mg/mL final protein concentration) and the samples preincubated for 5 min at 37° C. and 800 rpm agitation.
After the preincubation, 250 μL cold acetonitrile were added to the 0 min samples to prevent a reaction. Following this, 12.5 μL NADPH solution were added to all wells to start the incubation, with the exception of the 0 min and 30 min controls without cofactor, where the NADPH was substituted for phosphate buffer.
The incubations were stopped after 5, 10, 20 and 30 min by adding 250 μL cold acetonitrile to the individual wells.
The quenched samples were then centrifuged at 4000 g for 1 h at 4° C. 100 μL of the supernatant were transferred into 96 well plates for analysis.
The metabolic stability of each compound was determined by measurement of the change in LC-MS/MS peak area over time. Assay Explorer software was used to automatically calculate the slope k of the decline. The intrinsic clearance (CLint) of each compound was then calculated according to the formula: CLint(μL/min/mg protein)=k1000/protein concentration.
CLint is shown for each compound in Table 3 below.

[2] = test system: Wnt pathway; assay: Cellular assay for Wnt pathway activity (luciferase reporter cell based assay); conditions: 24 h, HEK293 luciferase reporter cell line (ER-DSH, TCF dependent promoter), induced with estrogen (1 μM), read-out: 7df3 IC50

Row | Structure (SMILES) | Human Clint [1] | pIC50 [2] | microsomal CLint at 0.8 μM [1]
1 | Cc1nc(-c2ccc(-c3cncc(Cl)c3N3CCC4(CCNC4=O)CC3)cc2)cn1C [Example 18, 8-{3-Chloro-5-[4-(1,2-dimethyl-1H-imidazol-4-yl)-phenyl]-pyridin-4-yl}-2,8-diaza-spiro[4.5]decan-1-one] | 13 µL/min/mg |  | 
2 | CC(C)n1cc(-c2ccc(-c3cncc(Cl)c3N3CCC4(CCNC4=O)CC3)cc2)cn1 [Example 6, 8-{3-Chloro-5-[4-(1-isopropyl-1H-pyrazol-4-yl)-phenyl]-pyridin-4-yl}-2,8-diaza-spiro[4.5]decan-1-one] |  | 8.21 | 90 µL/min/mg
3 | O=C1NCCC12CCN(c1c(Cl)cncc1-c1ccc3c(c1)CS(=O)(=O)C3)CC2 [Example 32, 8-[3-Chloro-5-(2,2-dioxo-2,3-dihydro-1H-2l6-benzo[c]thiophen-5-yl)-pyridin-4-yl]-2,8-diaza-spiro[4.5]decan-1-one] |  | 8.33 | 70 µL/min/mg
4 | CN1c2ccc(-c3cncc(Cl)c3N3CCC4(CC3)NC(=O)CNC4=O)cc2CS1(=O)=O [Example 21, 9-[3-Chloro-5-(1-methyl-2,2-dioxo-2,3-dihydro-1H-2l6-benzo[c]isothiazol-5-yl)-pyridin-4-yl]-1,4,9-triaza-spiro[5.5]undecane-2,5-dione] |  | 7.51 | < 10 µL/min/mg
5 | O=C1NCCC12CCN(c1c(Cl)cncc1-c1ccc3oc(=O)[nH]c3c1)CC2 [Example 3, 5-[5-Chloro-4-(1-oxo-2,8-diaza-spiro[4.5]dec-8-yl)-pyridin-3-yl]-3H-benzooxazol-2-one] |  | 8.36 | 35 µL/min/mg
6 | Cn1cc(-c2ccc(-c3cncc(Cl)c3N3CCC4(CC3)CNC(=O)O4)cc2)cn1 [Example 9, 8-{3-Chloro-5-[4-(1-methyl-1H-pyrazol-4-yl)-phenyl]-pyridin-4-yl}-1-oxa-3,8-diaza-spiro[4.5]decan-2-one] | 40 µL/min/mg |  | 
7 | Cn1nc(N)c2ccc(-c3cncc(Cl)c3N3CCC4(CCNC4=O)CC3)cc21 [Example 24, 8-[3-(3-Amino-1-methyl-1H-indazol-6-yl)-5-chloro-pyridin-4-yl]-2,8-diaza-spiro[4.5]decan-1-one] | 78 µL/min/mg |  | 
8 | O=C1NCCC12CCN(c1c(Cl)cncc1-c1ccc(-c3cnn(CCO)c3)cc1)CC2 [Example 5, 8-(3-Chloro-5-{4-[1-(2-hydroxy-ethyl)-1H-pyrazol-4-yl]-phenyl}-pyridin-4-yl)-2,8-diaza-spiro[4.5]decan-1-one] | 40 µL/min/mg |  | 
9 | CNc1n[nH]c2cc(-c3cncc(Cl)c3N3CCC4(CCNC4=O)CC3)ccc12 [Example 34, 8-[3-Chloro-5-(3-methylamino-1H-indazol-6-yl)-pyridin-4-yl]-2,8-diaza-spiro[4.5]decan-1-one] | 52 µL/min/mg |  | 
10 | Nc1n[nH]c2cc(-c3cncc(Cl)c3N3CCC4(CCNC4=O)CC3)ccc12 [Example 7, 8-[3-(3-Amino-1H-indazol-6-yl)-5-chloro-pyridin-4-yl]-2,8-diaza-spiro[4.5]decan-1-one] | 27 µL/min/mg |  | 
11 | Cn1cc(-c2ccc(-c3cncc(C(F)(F)F)c3N3CCC4(CC3)CNC(=O)O4)cc2)cn1 [Example 35, 8-{3-[4-(1-Methyl-1H-pyrazol-4-yl)-phenyl]-5-trifluoromethyl-pyridin-4-yl}-1-oxa-3,8-diaza-spiro[4.5]decan-2-one] |  |  | < 10 µL/min/mg
12 | Cn1cc(-c2ccc(-c3cncc(Cl)c3N3CCC4(CC3)NC(=O)NC4=O)cc2)cn1 [Example 13, 8-{3-Chloro-5-[4-(1-methyl-1H-pyrazol-4-yl)-phenyl]-pyridin-4-yl}-1,3,8-triaza-spiro[4.5]decane-2,4-dione] |  |  | < 10 µL/min/mg

Second part, the molecule after the results:

Row | Human Clint [1] | pIC50 [2] | microsomal CLint at 0.8 μM [1] | Structure (SMILES)
13 |  | 8.85 | 65 µL/min/mg | Cn1cc(-c2ccc(-c3cncc(Cl)c3N3CCC4(CC3)C(=O)Nc3cccnc34)cc2)cn1 [Example 68]
14 |  | 7.70 | 20 µL/min/mg | CN1C(=O)Cc2ccc(-c3cncc(Cl)c3N3CCC4(CC3)NCNC4=O)cc21 [Example 74, 8-[3-Chloro-5-(1-methyl-2-oxo-2,3-dihydro-1H-indol-6-yl)-pyridin-4-yl]-1,3,8-triaza-spiro[4.5]decan-4-one]
15 | 85 µL/min/mg |  |  | CC1=NNC(=O)C12CCN(c1c(Cl)cncc1-c1ccc3c(c1)CS(=O)(=O)N3C)CC2 [Example 41, 8-[3-Chloro-5-(1-methyl-2,2-dioxo-2,3-dihydro-1H-2l6-benzo[c]isothiazol-5-yl)-pyridin-4-yl]-4-methyl-2,3,8-triaza-spiro[4.5]dec-3-en-1-one]
16 |  | 8.14 | 47 µL/min/mg | Cn1ncc2cc(-c3cncc(Cl)c3N3CCC4(CC3)NCNC4=O)ccc21 [Example 82, 8-[3-Chloro-5-(1-methyl-1H-indazol-5-yl)-pyridin-4-yl]-1,3,8-triaza-spiro[4.5]decan-4-one]
17 |  | 8.12 | 44 µL/min/mg | O=C1NCCC12CCN(c1c(Cl)cncc1-c1ccc(-c3cnn([C@H]4CCC[C@@H]4O)c3)cc1)CC2 (racemic) [Example 56, 8-(3-Chloro-5-{4-[1-((1S,2S)-2-hydroxy-cyclopentyl)-1H-pyrazol-4-yl]-phenyl}-pyridin-4-yl)-2,8-diaza-spiro[4.5]decan-1-one]
18 | 89 µL/min/mg |  |  | CN1c2ccc(-c3cncc(Cl)c3N3CCC4(CC3)C(=O)NN=C4C(F)(F)F)cc2CS1(=O)=O [Example 58, 8-[3-Chloro-5-(1-methyl-2,2-dioxo-2,3-dihydro-1H-2l6-benzo[c]isothiazol-5-yl)-pyridin-4-yl]-4-trifluoromethyl-2,3,8-triaza-spiro[4.5]dec-3-en-1-one]
19 | 23 µL/min/mg |  |  | CC(C)(O)Cn1cc(-c2ccc(-c3cncc(Cl)c3N3CCC4(CCNC4=O)CC3)cc2)cn1 [Example 47, 8-(3-Chloro-5-{4-[1-(2-hydroxy-2-methyl-propyl)-1H-pyrazol-4-yl]-phenyl}-pyridin-4-yl)-2,8-diaza-spiro[4.5]decan-1-one]
20 |  | 8.66 |  | Cn1cc(-c2ccc(-c3cncc(Cl)c3N3CCC4(CC3)CC(=O)NC4=O)cc2)cn1 [Example 86, 8-{3-Chloro-5-[4-(1-methyl-1H-pyrazol-4-yl)-phenyl]-pyridin-4-yl}-2,8-diaza-spiro[4.5]decane-1,3-dione]
21 | 20 µL/min/mg |  |  | CN1C(=O)NC(=O)C12CCN(c1c(Cl)cncc1-c1ccc(-c3cnn(C)c3)cc1)CC2 [Example 49, 8-{3-Chloro-5-[4-(1-methyl-1H-pyrazol-4-yl)-phenyl]-pyridin-4-yl}-1-methyl-1,3,8-triaza-spiro[4.5]decane-2,4-dione]
22 | 81 µL/min/mg |  |  | Cn1cc(-c2ccc(-c3cncc(C(F)(F)F)c3N3CCC4(CCNC4=O)CC3)cc2)cn1 [Example 45, 8-{3-[4-(1-Methyl-1H-pyrazol-4-yl)-phenyl]-5-trifluoromethyl-pyridin-4-yl}-2,8-diaza-spiro[4.5]decan-1-one]
23 | 11 µL/min/mg |  |  | CN1c2ccc(-c3cncc(Cl)c3N3CCC4(CC3)NC(=O)NC4=O)cc2CS1(=O)=O [Example 37, 8-[3-Chloro-5-(1-methyl-2,2-dioxo-2,3-dihydro-1H-2l6-benzo[c]isothiazol-5-yl)-pyridin-4-yl]-1,3,8-triaza-spiro[4.5]decane-2,4-dione]
24 |  | 8.09 |  | Cn1ncc2cc(-c3cncc(Cl)c3N3CCC4(CCNC4=O)CC3)ccc21 [Example 91, 8-[3-Chloro-5-(1-methyl-1H-indazol-5-yl)-pyridin-4-yl]-2,8-diaza-spiro[4.5]decan-1-one]
25 | 16 µL/min/mg |  |  | CC1=NC2(CCN(c3c(Cl)cncc3-c3ccc4c(c3)CS(=O)(=O)N4C)CC2)C(=O)N1 [Example 46, 8-[3-Chloro-5-(1-methyl-2,2-dioxo-2,3-dihydro-1H-2l6-benzo[c]isothiazol-5-yl)-pyridin-4-yl]-2-methyl-1,3,8-triaza-spiro[4.5]dec-1-en-4-one]
26 |  | 7.39 |  | Cn1ccc(-c2ccc(-c3cncc(Cl)c3N3CCC4(CCNC4=O)CC3)cc2)n1 [Example 67, 8-{3-Chloro-5-[4-(1-methyl-1H-pyrazol-3-yl)-phenyl]-pyridin-4-yl}-2,8-diaza-spiro[4.5]decan-1-one]
27 | 18 µL/min/mg |  |  | CN1c2ccc(-c3cncc(F)c3N3CCC4(CC3)CNC(=O)O4)cc2CS1(=O)=O [Example 80, 8-[3-Fluoro-5-(1-methyl-2,2-dioxo-2,3-dihydro-1H-2l6-benzo[c]isothiazol-5-yl)-pyridin-4-yl]-1-oxa-3,8-diaza-spiro[4.5]decan-2-one]
